Results: US20050009834A1, “Azole compounds, process for preparation of the same and use thereof” (priority 2001, published 2005)

What was measured:
Plutella xylostella = test: insecticidal effect for Plutella xylostella (cabbage leaf dip); assay type: in vivo; settings: 100 ppm, second-instar larvae, fifth day after, 24° C.
Method: 1) insecticidal effect for Plutella xylostella One 7 to 8-leave stage foliage leaf of cabbage was cut off and dipped in a pesticidal solution for a few seconds, which was prepared by dissolving 5 mg of test compound (represented by the compound Nos. in the above Examples) in 0.5 ml of acetone containing Tween 20 (trade name) and then diluting it to the prescribed concentration (100 ppm) with Dain water diluted 5000-fold. After drying the pesticidal solution, the leaf was put into an ice cream cup (180 ml), and ten second-instar larvae of Plutella xylostella were set free. The cup was left in a temperature-controlled breeding room (24° C.). On the fifth day after, the number of surviving Plutella xylostella was examined. The rate of dead pests was calculated by the following formula, and the result was shown in table 39. rate of dead pests (%)=(number of dead pests/number of test pests)×100

Tetranychus urticae = test: acaricidal effect for Tetranychus urticae (spray on string bean); assay type: in vivo; settings: 500 ppm, female imagoes, survivors counted on second and seventh day after treatment, 25° C.
Method: 2) acaricidal effect for Tetranychus urticae Ten female imagoes Tetranychus urticae were set free on a string bean wherein first leaves had just developed. On the following day, the pesticidal solution, which was prepared by dissolving 5 mg of test compound (represented by the compound Nos. in the above Examples) in 0.5 ml of acetone containing Tween 20 (trade name) and then diluting it to the prescribed concentration (500 ppm) with Dain water diluted 5000-fold, was sprayed with spray gun in the amounts wherein the pesticidal solution dripped. The string bean was left in a temperature-controlled breeding room (25° C.). On the second and seventh day after treatment, the number of surviving Tetranychus urticae was examined. The rate of decrease was calculated by the following formula, and the result was shown in table 40. rate of decrease (%)=(1−(S2/(5.59×(10+(10+S1)/2+S1))))×100 • S1; the number of surviving imagoes on the second day after S2; the number of surviving imagoes on the seventh day after […]

| SMILES | Rate of dead pests (%) (Plutella xylostella) | Rate of decrease (%) (Tetranychus urticae) | melting point |
| --- | --- | --- | --- |
| COCc1nc(-c2c(F)cccc2Cl)nn1-c1ccc(COc2ncc(C(F)(F)F)cc2Cl)cc1 [T-56] | 100% | 98% | – |
| Cc1cccc(C)c1-c1nc(C)n(-c2ccc(COc3ncc(C(F)(F)F)cc3Cl)cc2)n1 [T-74] | 100% | 97% | – |
| Fc1cccc(Cl)c1-c1nc(Cl)n(-c2ccc(COc3ncc(C(F)(F)F)cc3Cl)cc2)n1 [T-43] | 100% | 100% | – |
| Cc1nc(-c2ccccc2F)cn1-c1ccc(COc2ncc(C(F)(F)F)cc2Cl)cc1 [I-63, 1-[4-[3-chloro-5-(trifluoromethyl)pyridin-2-yloxymethyl]phenyl]-4-(2-fluorophenyl)-2-methylimidazole] | – | – | 109 °C |
| Fc1cccc(Cl)c1-c1cc(Cl)n(-c2ccc(COc3ncc(C(F)(F)F)cc3Cl)cc2)n1 [P-21, 5-chloro-3-(2-chloro-6-fluorophenyl)-1-[4-(3-chloro-5-trifluoromethylpyridin-2-yloxymethyl)phenyl]pyrazole] | 100% | 99% | – |
| CCc1nc(-c2c(F)cccc2Cl)nn1-c1ccc(COc2ncc(C(F)(F)F)cc2Cl)cc1 [T-48] | 100% | 99% | – |
| Nc1nc(-c2c(F)cccc2Cl)nn1-c1ccc(COc2ncc(C(F)(F)F)cc2Cl)cc1 [T-40] | 95% | 97% | – |
| Cc1nc(-c2c(F)cccc2Cl)nn1-c1ccc(COc2ncc(C(F)(F)F)cc2Cl)cc1Cl [T-30] | 100% | 99% | – |
| Cc1nc(-c2c(F)cccc2Cl)nn1-c1ccc(COc2ccc(Cl)cc2)cc1 [T-3] | 100% | 98% | – |
| Cc1nc(-c2c(F)cccc2Cl)nn1-c1ccc(COc2ncc(Cl)cc2Cl)cc1 [T-20] | 100% | 98% | – |
